Measured values as given in patent US6958318B2, “Recombinant bacterial cells for delivery of PNP to tumor cells” (The UAB Research Foundation, priority 1993, dated 2005).
“And” between values parts separate entries of the source, which are not always exact repeats. Equal values may be shown once. “Also recorded” adds a separate entry of the source. Read-outs that look alike come from different tables or passages of the source.

Legend:
PNP transduced tumors = format: in vivo; details: 67 mg/kg ip, qd×3 d
E. coli PNP [1] = target: T1, E. coli PNP (Escherichia coli, UniProt P0ABP8)
T1 sequence (P0ABP8 2-239): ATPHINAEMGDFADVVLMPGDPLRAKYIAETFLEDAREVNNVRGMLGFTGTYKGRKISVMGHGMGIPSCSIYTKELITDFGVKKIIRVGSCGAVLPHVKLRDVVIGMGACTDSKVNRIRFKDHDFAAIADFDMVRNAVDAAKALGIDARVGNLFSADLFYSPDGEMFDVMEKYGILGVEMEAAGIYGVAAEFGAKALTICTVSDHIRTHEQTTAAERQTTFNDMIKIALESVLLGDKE

HEp-2 cells = test: Toxicity to HEp-2 cells; format: cell-based
[2] = test system: D54 parental tumor cells (D54-wt); test: Wild-type D54 glioma tumors in nude mice; format: in vivo
Method: Female athymic nude mice (nu/nu) were implanted sc with 2×10^7 cells of either D54 parental tumor cells (D54-wt) or D54 tumor cells that had been transduced with the E. coli PNP (D54-PNP). After the tumors had grown to approximately 150 mg, they were treated ip with either vehicle or 67 mg/kg of MeP-dR (IP) once a day for 3 days (days 6, 7 and 8 after implantation). The tumor sizes were measured twice a week after treatment.
A confirmation experiment was set up exactly as described above, except that animals were treated with two doses of MeP-dR (45 and 67 mg/kg) (FIGS. 10 and 11). The results of this experiment were similar (Table V). There were 8 of 10 complete regressions in mice bearing the D54-PNP tumors that were treated with 67 mg/kg of MeP-dR. In 4 mice the tumors subsequently returned and grew. There were still 4 of 10 tumor-free survivors 60 days after the treatment had stopped. […] There were 2 of 10 complete regressions and 3 partial responses. […] The delay in the time required to double twice due to treatment with MeP-dR was 5 to 6 days in the non-transduced tumors and greater than 24 days in transduced tumors. In this experiment, the growth rate of the D54-PNP tumors was considerably slower than it was in the first experiment. There was no change in the growth rate of the D54-wt tumors. The reason for the slow growth rate of the D54-PNP tumors in this experiment is not known. […] (In other words, if a tumor was too small to measure, it was not included in the average size). This means that the overall tumor regressions in the D54 PNP group are actually much more pronounced than they appear in FIGS. 8-11.

E. coli PNP [3] = target: T1, E. coli PNP; format: biochemical
[4] = test system: T-84 colon carcinoma cells; test: Toxicity of MeP and MeP-dR in untransfected T-84 cells; format: cell-based, human; details: 5 days
Method: T-84 colon carcinoma cells were grown in Dulbecco's modified Eagle medium containing F12 nutrient medium (DMEM/F12) (GIBCO/BRL, Gaithersburg, Md.) in 6 well trays to a density of approximately […] (−20% confluency).
Untransfected T-84 colon carcinoma cells were treated with increasing concentrations of either MeP-dR or MeP. After 5 days the cells were removed from each well and the number of dye excluding cells were determined with the aid of a hemacytometer. Cells were studied both at passage 48 (p. 48) and passage 61 (p. 61). MeP was obtained from Sigma Chemical Company (St. Louis, Mo.). MeP-dR was synthesized by standard methods as described (J. A. Montgomery and K. Howson, J. Med. Chem., 11:48-52 (1968)). The nucleoside and base were dissolved in serum free DMEM/F12 at a concentration of 1 mg/ml and added directly to 1 ml DMEM/F12 with 10% fetal bovine serum at the concentrations described below in order to cover 1-2×10^5 cells/well.
Initial cytopathic effects due to MeP were observed within 24 hours (for example, rounding of cells, with some cells detaching from plate). Viable cells were counted 5 days following addition of drug. […] Trypan blue exclusion was used to confirm viability in cells retaining recognizable structure at all concentrations studied. […] If the toxicity of MeP-dR is due to very low levels of liberation of MeP by human PNP, then combination with selective inhibitors of human PNP could prevent this toxicity.

D54 glioma tumors = test: D54 tumors of mixed wild-type and transduced cells (80 to 20); details: in vivo
wild-type 16/C tumors = test: Wild-type 16/C tumors in B6C3F1 mice; format: in vivo
Method: Transduced 16/C cells were implanted in mice by subcutaneous injection of approximately 10^6 cells harvested from the cultures of stably transduced 16/C cells described above. The mice were examined visibly for tumor growth and those with developing tumors were maintained. To prepare mice for use in the in vivo experiments, the tumors were removed from mice with significant tumor growth and cut into 30-60 mg pieces. One 30-60 mg piece of the tumor was subcutaneously implanted into the subaxillary region of each female B6C3F1 mouse. The tumors were allowed to develop and mice with tumors of 100 mm^3 were used.
Six mice (B6C3F1) per group with established wild type 16/C tumors were treated with an aqueous control solution, MeP-dR (100 mg/kg IP qd×3d) or 2-fluoro-arabinofuranosyladenine monophosphate (F-araAMP) (100 mg/kg IP, […]). The wild type tumors grew rapidly in the presence or absence of either of the prodrugs. […] (Table III, Wild-type 16/C treatment).

human PNP = target: T2, human PNP (Homo sapiens, UniProt P00491); test: Cleavage of purine analog nucleosides by human PNP (HPLC); format: biochemical
T2 sequence (P00491 1-289): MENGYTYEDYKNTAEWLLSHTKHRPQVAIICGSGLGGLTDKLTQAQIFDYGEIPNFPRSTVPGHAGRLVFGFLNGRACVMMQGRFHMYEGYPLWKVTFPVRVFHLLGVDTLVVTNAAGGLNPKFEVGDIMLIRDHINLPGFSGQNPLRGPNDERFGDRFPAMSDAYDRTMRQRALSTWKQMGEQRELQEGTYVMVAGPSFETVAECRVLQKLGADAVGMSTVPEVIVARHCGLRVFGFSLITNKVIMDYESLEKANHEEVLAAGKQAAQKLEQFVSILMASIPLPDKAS

[5] = IP for three days, MeP-dR 100, F-araAMP 500 mg/kg/day

Cc1ncnc2c1ncn2[C@H]1C[C@H](O)[C@@H](CO)O1 [MeP-dR, 9-(β-D-2-deoxyerythropentofuranosyl)-6-methylpurine]
Effect on very large pre-existing PNP transduced tumors (approximately 1 gram) (PNP transduced tumors): impressive regression
Km (E. coli PNP [1]): 68 µM and 107 µM
Fold less toxic than 6-methylpurine (MeP) (HEp-2 cells): 20 fold
Effect on wild-type D54 tumors, in words ([2]; 45 or 67 mg/kg): little effect; also recorded: no partial of complete remissions; also recorded: did not affect parental D54 tumor cell growth
Days Delay (T-C) ([2]; Table IV, 67 mg/kg): 7 days
Doubling time ([2]; Table IV, 67 mg/kg): 21
Nonspecific Deaths/Total ([2]; Table IV, 67 mg/kg): 1/6
Regressions Partial ([2]; Table IV, 67 mg/kg): 0/6
Tumor-free Survival ([2]; Table IV, 67 mg/kg): 0/6
Regressions Complete ([2]; Table IV, 67 mg/kg IP once a day for three days): 0/6
Days Delay (T-C) ([2]; Table V, 45 mg/kg): 5 days
Doubling time ([2]; Table V, 45 mg/kg): 17
Nonspecific Deaths/Total ([2]; Table V, 45 mg/kg): 0/10
Regressions Partial ([2]; Table V, 45 mg/kg): 0/10
Tumor-free Survival ([2]; Table V, 45 mg/kg): 0/10
Regressions Complete ([2]; Table V, 45 mg/kg IP once a day for three days): 0/10
Days Delay (T-C) ([2]; Table V, 67 mg/kg): 6 days
Doubling time ([2]; Table V, 67 mg/kg): 18
Nonspecific Deaths/Total ([2]; Table V, 67 mg/kg): 0/10
Regressions Partial ([2]; Table V, 67 mg/kg): 0/10
Tumor-free Survival ([2]; Table V, 67 mg/kg): 0/10
Regressions Complete ([2]; Table V, 67 mg/kg IP once a day for three days): 0/10
MeP-dR converted to MeP (E. coli PNP [3]; extracts of E. coli PNP transfected T-84 cells, 100 μM, 24 hours, 25° C.): Approximately 24%
MeP-dR converted to MeP (E. coli PNP [3]; extracts of LacZ transfected T-84 cells): no conversion occurred
Toxicity to cells that were not transfected ([4]; 160 μM): minimally toxic
Cells killed ([4]; 200 and 400 μM): less than half of the cells were killed
Cell death ([4]; lower concentrations): did not cause any appreciable cell death
Activity against tumors of wild-type and transduced cells at 80 to 20 (D54 glioma tumors): less active
Complete Regressions/Total (wild-type 16/C tumors; [5]): 0/6
Day delay (Treated-control) (wild-type 16/C tumors; [5]): 2.4 days
Nonspecific Deaths/Total (wild-type 16/C tumors; [5]): 0/6
Delay in tumor growth, in words (wild-type 16/C tumors; wild type 16/C): no statistically significant delay in tumor growth
Percent of substrate cleaved by Human PNP, 100 μM (human PNP): 0(86) Percent and 0%
Percent of substrate cleaved by Human PNP, 1 mM (human PNP): 0(47) Percent and 0%
Substrate quality for mammalian (human) PNP (human PNP): poor substrates
